Measurements reported in US20230373972A1, “PIPERAZINE DERIVATIVE, PREPARATION METHOD THEREFOR AND USE THEREOF” (Zhejiang Hisun Pharmaceutical Co., Ltd., priority 2020, published 2023).

Experiments:
[1] = Metabolic stability in dog liver microsomes; type: in vitro ADME
Method: The experiment was intended to study the metabolic stability of the compounds of the present invention in dog and mouse liver microsomes.
A test compound and the compound of Comparative Example 1 were incubated with dog and mouse liver microsomes (the Corning Company. USA) respectively, and a coenzyme NADPH was added to start the reaction. 135 μL of acetonitrile containing an internal standard (IS) was added to wells of a corresponding plate after 0, 5, 15, 30 and 45 minutes respectively to terminate the reaction. After protein precipitation, the solution was centrifuged at 5.594 rpm for 15 minutes, and a supernatant was taken. The supernatant was diluted with water by 1:1 (volume ratio) and then analyzed by a LC-MS/MS method. Ketanserin was used as an internal reference compound, and two copies of Ketanserin were incubated in parallel.
A peak area ratio of analyte/internal standard (Aanalyte/A1s) was obtained by an instrument, and a remaining percentage (% Control) was calculated by ratios of Aanalyte/A1s in a sample at a non-zero time point and a sample at a zero time point. Ln (% Control) was plotted and fitted linearly with the incubation time. A scavenging constant (k, min^−1) and a scavenging half-life (T1/2, min) of the tested compound were calculated by the following equation.

[2] = Pharmacokinetics in SD rat; type: in vivo; settings: male, plasma; for AUC(0-t): read-out: Curve area AUC0-t; for half-life: read-out: Half-life period T1/2(h) (converted)
Method: Taking a SD rat as a test animal, the SD rat was administrated with the compound of the present invention by intravenous injection and/or intragastric administration, and drug concentrations in plasma at different times were determined by a IC/MS/MS method to study pharmacokinetic characteristics of the compound of the present invention in the SD rat.
SD rats, male, 195 g to 235 g, 6 weeks old to 8 weeks old, purchased from Shanghai JieSiJie Laboratory Animal Co., Ltd.
Preparation of drug administrated by intravenous injection: a proper amount of compound to be tested was added to a proper amount of DMAC; (30% Soltol HS 15): Saline=10%: 10%: 80% (v/v/v), and shaken in a vortex manner, so as to prepare a final solution with a concentration of 0.5 mg/mL.
Preparation of drug administrated by intragastric administration: a proper amount of compound to be tested was added to a proper amount of DMAC: (30% Soltol HS 15): Saline=10%: 10%: 80% (v/v/v), and shaken in a vortex manner, so as to prepare a final solution with a concentration of 1 mg/mL.
SD rats were divided into an intravenous injection group of the compound to be tested (3 rats/group) and an intragastric administration group (3 rats/group) of the compound to be tested.
Intravenous injection group: the drug was administrated by dorsalis pedis vein injection (according to a dosage of 1 mg/kg and a volume of 2 mL/kg) without fasting.
Intragastric administration group: the drug was administrated by intragastric administration (according to a dosage of 10 mg/kg and a volume of 10 mL/kg) after fasting overnight, and food was taken 4 hours after administration.
Intravenous injection group: about 150 μL of blood was collected into an EDTA-K2 anticoagulant tube through a jugular vein 0.083 hour, 0.25 hour, 0.5 hour, 1 hour, 2 hours, 4 hours, 8 hours and 24 hours after administration.
Intragastric administration group; about 150 μL of blood was collected into an EDTA-K2 anticoagulant tube through a jugular vein 0.25 how, 0.5 hour, 1 hour, 2 hours, 4 hours, 8 hours and 24 hours after administration.
The blood sample was stored in wet ice first, and plasma was centrifugally separated within 15 minutes after sampling (centrifugation conditions: 2,000 g, 4° C., 5 minutes). The collected upper plasma was stored at −70° C. before analysis.
Contents of the compound to be tested in rat plasma after intravenous injection and intragastric administration were determined by LC-MS/MS.

[3] = Pharmacokinetics in ICR mouse; type: in vivo; settings: male, plasma; for AUC(0-t): read-out: Curve area AUC0-t; for half-life: read-out: Half-life period T1/2(h) (converted)
Method: Taking an ICR mouse as a tested animal, the ICR mouse was administrated with the compound in Example 96 of the present invention by intravenous injection and intragastric administration, and drug concentrations in plasma at different times were determined by a LC/MS/MS method to study pharmacokinetic characteristics of the compound of the present invention in the mouse.
ICR mice, male, 29.2 g to 34.9 g, purchased from Beijing Vital River Laboratory Animal Technology Co., Ltd.
Preparation of drug administrated by intravenous injection: a proper amount of compound to be tested was added to a proper amount of DMAC: (30% Soltol HS 15): Saline=10%: 10%: 80% (v/v/v), and shaken in a vortex manner, so as to prepare a final solution with a concentration of 0.2 mg/mL.
Preparation of drug administrated by intragastric administration: a proper amount of compound to be tested was added to a proper amount of DMA: (30% Soltol HS 15): Saline=10%: 10%: 80% (v/v/v), and shaken in a vortex manner, so as to prepare a final solution with a concentration of 0.5 mg/mL.
ICR mice were divided into an intravenous injection group and an intragastric administration group (9 rats in single group).
Intravenous injection group: the drug was administrated by intravenous injection (according to a dosage of 1 mg/kg and a volume of 5 mL/kg) without fasting.
Intragastric administration group: the drug was administrated by intragastric administration (according to a dosage of 5 mg/kg and a volume of 10 mL/kg) after fasting overnight, and food was taken 4 hours after administration.
Intravenous injection group: about 80 μL of blood was collected into an EDTA-K2 anticoagulant tube through an orbit 0.083 hour, 0.25 hour, 0.5 hour, 1 hour, 2 hours, 4 hours, 8 hours, 12 hours and 24 hours after administration.
Intragastric administration group: about 80 μL of blood was collected through an orbit 0.25 hour, 0.5 hour, 1 hour, 2 hours, 4 hours, 8 hours, 12 hours and 24 hours before and after administration.
The whole blood sample was placed in an EDTA-K2 anticoagulant tube. Plasma was centrifugally separated (centrifugation conditions: 1,500 g, 10 minutes). The collected upper plasma was stored al −40° C. to −20° C. before analysis.
Contents of the compound to be tested in mouse plasma after intravenous and intragastric administration were determined by LC-MS/MS.

[4] = iv, injection administration 1 mg/kg
[5] = po, intragastric administration 10 mg/kg
[6] = po, intragastric administration 5 mg/kg

half-life at 1 μM ([1]; dog liver microsomes 0.5 mg/mL, 1 μM compound, NADPH, read-out: Half-life period (T1/2 min) Dog): 15.3 h | AUC(0-t) [2, 4]: 532 ± 87.8 ng·h/mL | half-life [2, 4]: 0.942 ± 0.078 h | bioavailability ([2]; po, intragastric 10 mg/kg vs injection 1 mg/kg, read-out: Bioavailability F(%)): 72.5 ± 13.7% | Cmax ([2]; po, intragastric administration 10 mg/kg, read-out: Blood concentration Cmax): 1790 ± 510 ng/mL | AUC(0-t) [2, 5]: 3860 ± 728 ng·h/mL | half-life [2, 5]: 1.54 ± 0.784 h | AUC(0-t) [3, 4]: 1240 ng·h/mL | half-life [3, 4]: 0.664 h | bioavailability ([3]; po, intragastric 5 mg/kg vs injection 1 mg/kg, read-out: Bioavailability F(%)): 69.8% | Cmax ([3]; po, intragastric administration 5 mg/kg, read-out: Blood concentration Cmax): 2040 ng/mL | AUC(0-t) [3, 6]: 4330 ng·h/mL | half-life [3, 6]: 1.84 h
SMILES: COCC[C@@H](C(=O)Nc1ccc2nn(C)cc2c1)N1CC(=O)N(c2cc(Cl)ccc2-n2cc(Cl)nn2)CC1=O [Example 96, (S)-2-(4-(5-chloro-2-(4-chloro-1H-1,2,3-triazol-1-yl)phenyl)-2,5-dioxopiperazin-1-yl)-4-methoxy-N-(2-methyl-2H-indazol-5-yl)butanamide]
Half-life period and stability compared with Comparative Example 1 ([1]; dog liver microsomes, in words): longer half-life period and a higher stability
